According to patent publication US20010025018A1, “Antimicrobial activity of laccases” (priority 1997, published 2001):

What was measured:
[1] = tested on: Pseudomonas aeruginosa (ATCC10145); assay: Bactericidal activity of laccase/enhancer systems, Malthus conductance enumeration of surviving cells; assay type: cell-based; conditions: for Bactericidal activity (log(cfu/ml)=the logarithm to the number of killed cells): enhancer 0.1 mM with rPpL or rMtL 3 mg/L, 20 min, approx. 10^4 cfu/ml
Method: (§1) Bactericidal activity was evaluated in 0.05 M MES-buffer (2-[N-morpholino]ethanesulfonic acid) (pH 6), which were flushed with air for 5 min before filter sterilisation. The bactericidal activity was determined against Pseudomonas aeruginosa (ATCC10145) and Staphylococcus epidermidis (DSM20042). Cells were grown in Tryptone Soya Broth (Oxoid CM129) at 30° C. for 24 h and diluted in the MES-buffer to a final cell concentration of approximately 10^4 cfu/ml. The cell suspensions were mixed with laccase (3 mg/L) and enhancer (0.1 mM) for 20 min at 40° C. The bactericidal activity was determined by incubation in Malthus. Detection times measured by the Malthus instrument were converted to cfu/ml by a calibration curve. Either direct or indirect Malthus measurements were used when enumerating total survival cells (Malthus Flexi M2060, Malthus Instrument Limited). By the direct measurements, the cell metabolism was determined by conductance measurements in the growth substrate. By the indirect measurements, 3 ml of growth medium was transferred to the outer chamber of the indirect Malthus cells, and 0.5 ml of sterile KOH (0.1 M) was transferred to the inner chamber. The cell suspensions were after enzyme treatment transferred to the outer chamber of the Malthus cell. As cells are growing in the outer chamber they produce CO2 which will dissolve in the KOH in the inner chamber and thereby change the conductance of the KOH. The amount of CO2 formed by the respiring cells surviving the enzyme treatment was used for estimating the number of viable cells. When the conductance change is measurable by the Malthus, a detection time (dt) will be recorded. The dt-s were converted to colony counts by use of a calibration curve relating cfu/ml to dt (Johansen et al. 1995. Journal of Applied Bacteriology 78:297-303, Johansen et al. 1997, Applied and Environmental Microbiology 63:3724-3728).
Antimicrobial activity (i.e. bactericidal activity) of Myceliophthera laccase (rMtL) and methylsyringate (MeS) was determined using a 32 factorial design at pH 6 at 40° C. in MES-buffer as described in example 1, however, a higher cell concentration was used (10^7-10^8 cfu/ml). Tested rMtL levels was 0-2,5-5 mg/L and MeS levels was 0-5-10 mM.
Antimicrobial activity (i.e. bactericidal activity) of Myceliophthera laccase (rMtL) and Polyporus laccase (rPpL) was determined against Staphylococcus epidermidis at pH 6 in MES-buffer as described in example 1, the laccases was used in the concentration of 3 mg/L. Acetosyringon, methylsyringate, ethylsyringate, butylsyringate and laurylsyringate were evaluated as electron-donors in the concentration of 0.2 mM.
Antimicrobial activity of laccases with two enhancers was determined against Pseudomonas aeruginosa (ATCC 10145) and Staphylococcus epidermidis (DSM 20042) at pH 6 as described in example 1. Methylsyringate and acetosyringon was used as enhancers and the laccase was rPpL (1 mg/L) and the antimicrobial activity was determined by use of a 32 factorial experimental design.

[2] = tested on: Staphylococcus epidermidis (DSM20042); assay: as above; assay type: cell-based; conditions: for Bactericidal activity (log(cfu/ml)=the logarithm to the number of killed cells): enhancer 0.1 mM with rPpL or rMtL 3 mg/L, 20 min, approx. 10^4 cfu/ml; for Bactericidal activity (log(cfu/ml)=the logarithm to the number of killed cells) / bactericidal activity when combined with laccase / bactericidal activity without laccase / bactericidal activity when combined with Polyporus laccase: pH 6, 40° C.; for bactericidal activity when combined with laccase: laccase (rMtL or rPpL) 3 mg/L; for bactericidal activity when combined with laccase / bactericidal activity without laccase / bactericidal activity when combined with Polyporus laccase: 20 minutes; for bactericidal activity without laccase: no laccase; for bactericidal activity when combined with Polyporus laccase: rPpL 3 mg/L
Method: as §1, with “63:3724-3728). […]” for “63:3724-3728).”

| Compound | Bactericidal activity (log(cfu/ml)=the logarithm to the number of killed cells) ([1]; pH 6, 40° C.) | Bactericidal activity (log(cfu/ml)=the logarithm to the number of killed cells) [2] | bactericidal activity when combined with Polyporus laccase ([2]; enhancer 0.2 mM) [%] | also measured |
| --- | --- | --- | --- | --- |
| O=C(O)CCN1c2ccccc2Sc2ccccc21 [PPT, reference compound] | None of the other enhancers resulted in bactericidal activity | None of the other enhancers resulted in bactericidal activity |  |  |
| COc1cc(C(C)=O)cc(OC)c1O [acetosyringon] |  |  | 100 | bactericidal activity, comparison of the syringate-compounds as enhancers ([1]; different syringate-compounds with laccase): most bactericidal enhancer; cell reduction ([1]; with rPpL (1 mg/L), pH 6, 40° C.): approximately 1.5 log units; bactericidal activity when combined with laccase ([2]; enhancer 0.2 mM): significantly increased; bactericidal activity without laccase ([2]; enhancer 0.2 mM): did also show bactericidal activity; bactericidal activity with Myceliophthera laccase ([2]; enhancer 0.2 mM, rMtL 3 mg/L, pH 6, compared to Polyporus laccase and to the other syringate compounds): decreased |
| CCCCOC(=O)c1cc(OC)c(O)c(OC)c1 [butylsyringate] |  |  | 100 |  |
| O=C(/C=C/c1ccc(O)c(O)c1)O[C@@H]1C[C@](O)(C(=O)O)C[C@@H](O)[C@H]1O [chlorogenic acid, reference compound] | None of the other enhancers resulted in bactericidal activity | None of the other enhancers resulted in bactericidal activity |  |  |
| O=C(O)C=Cc1ccccc1 [cinnamic acid, reference compound] | None of the other enhancers resulted in bactericidal activity | None of the other enhancers resulted in bactericidal activity |  |  |
| CCOC(=O)c1cc(OC)c(O)c(OC)c1 [ethylsyringate] |  |  | 100 |  |
| CCCCCCCCCCCCOC(=O)c1cc(OC)c(O)c(OC)c1 [laurylsyringate] |  |  |  | bactericidal activity when combined with laccase ([2]; enhancer 0.2 mM): significantly increased; bactericidal activity without laccase ([2]; enhancer 0.2 mM): did also show bactericidal activity |
| COc1cc(C=O)cc(OC)c1O [syringaldehyde] | None of the other enhancers resulted in bactericidal activity | None of the other enhancers resulted in bactericidal activity |  |  |
